Tests used:
CFTR [1] = target: T1, CFTR (Homo sapiens, UniProt P13569, DEL508-508); assay: HBE2 assay: Ussing chamber assay of CFTR-mediated short-circuit currents (F508del/MF-HBE, with 44 nM potentiator); type: cell-based; settings: F508del/MF-HBE cells; single fixed concentration 3 μM with 44 nM (6R,12R)-17-amino-12-methyl-6,15-bis(trifluoromethyl)-...-pentaen-6-ol, 18-24 hours, 20% human serum
T1 construct: human bronchial epithelial (HBE) cells derived from CF subjects heterozygous for F508del; endogenous in cells; host or cells: primary human bronchial epithelial cells from CF subjects (F508del/MF-HBE)
Description: 1. Ussing Chamber Assay of CFTR-mediated Short-circuit Currents
Ussing chamber experiments were performed using human bronchial epithelial (HBE) cells derived from CF subjects heterozygous for F508del and a minimal function CFTR mutation (F508del/MF-HBE) and cultured as previously described (Neuberger T, Burton B, Clark H, Van Goor F Methods Mol Biol 2011:741:39-54). After four days the apical media was removed, and the cells were grown at an air liquid interface for >14 days prior to use.
To isolate the CFTR-mediated short-circuit (ISC) current, F508del/MF-HBE grown on Costar® Snapwell™ cell culture inserts were mounted in an Ussing chamber and the transepithelial ISC was measured under voltage-clamp recording conditions (Vhold=0 mV) at 37° C. The basolateral solution contained (in mM) 145 NaCl, 0.83 K2HPO4, 3.3 KH2PO4, 1.2l MgCl2, 1.2 CaCl2), 10 Glucose, 10 HEPES (pH adjusted to 7.4 with NaOH) and the apical solution contained (in mM) 145 NaGluconate, 1.2 MgCl2, 1.2 CaCl2), 10 glucose, 10 HEPES (pH adjusted to 7.4 with NaOH) and 30 μM amiloride to block the epithelial sodium channel. […] The CFTR-mediated ISC (μA/cm^2) for each condition was determined from the peak forskolin response to the steady-state current following inhibition. […]
The activity of the CFTR corrector compounds on the CFTR-mediated ISC was determined in Ussing chamber studies as described above. […]

CFTR [2] = target: CFTR (Homo sapiens, UniProt P13569); assay: standard Ussing Chamber Assay for CFTR potentiator activity; type: cell-based
Description: tert-Butyl N-[(6R,12R)-6-benzyloxy-12-methyl-6,15-bis(trifluoromethyl)-13,19-dioxa-3,4,18-triazatricyclo[12.3.1.12,5]nonadeca-1(18),2,4,14,16-pentaen-17-yl]-N-tert-butoxycarbonyl-carbamate (8.6 g, 11.77 mmol) was dissolved in ethanol (172 mL) then the flask was cycled 3 times between vacuum/nitrogen. Treated the mixture with 10% Pd/C (50% water wet, 1.8 g of 5% w/w, 0.8457 mmol) then cycled 3 times between vacuum/nitrogen and 3 times between vacuum/hydrogen and then stirred vigorously under hydrogen (balloon) at room temperature for 18 h. The mixture was cycled 3 times between vacuum/nitrogen, filtered over Celite washing with ethanol and then the filtrate was evaporated to give 7.3 g of tert-butyl N-tert-butoxycarbonyl-N-[(6R,12R)-6-hydroxy-12-methyl-6,15-bis(trifluoromethyl)-13,19-dioxa-3,4,18-triazatricyclo[12.3.1.12,5]nonadeca-1(18),2,4,14,16-pentaen-17-yl]carbamate an off-white solid. 1H NMR and MS confirmed the expected product. CFTR modulatory activity was confirmed using a standard Ussing Chamber Assay for CFTR potentiator activity.

T1 sequence (P13569 with tags, fused parts or gaps DEL508-508): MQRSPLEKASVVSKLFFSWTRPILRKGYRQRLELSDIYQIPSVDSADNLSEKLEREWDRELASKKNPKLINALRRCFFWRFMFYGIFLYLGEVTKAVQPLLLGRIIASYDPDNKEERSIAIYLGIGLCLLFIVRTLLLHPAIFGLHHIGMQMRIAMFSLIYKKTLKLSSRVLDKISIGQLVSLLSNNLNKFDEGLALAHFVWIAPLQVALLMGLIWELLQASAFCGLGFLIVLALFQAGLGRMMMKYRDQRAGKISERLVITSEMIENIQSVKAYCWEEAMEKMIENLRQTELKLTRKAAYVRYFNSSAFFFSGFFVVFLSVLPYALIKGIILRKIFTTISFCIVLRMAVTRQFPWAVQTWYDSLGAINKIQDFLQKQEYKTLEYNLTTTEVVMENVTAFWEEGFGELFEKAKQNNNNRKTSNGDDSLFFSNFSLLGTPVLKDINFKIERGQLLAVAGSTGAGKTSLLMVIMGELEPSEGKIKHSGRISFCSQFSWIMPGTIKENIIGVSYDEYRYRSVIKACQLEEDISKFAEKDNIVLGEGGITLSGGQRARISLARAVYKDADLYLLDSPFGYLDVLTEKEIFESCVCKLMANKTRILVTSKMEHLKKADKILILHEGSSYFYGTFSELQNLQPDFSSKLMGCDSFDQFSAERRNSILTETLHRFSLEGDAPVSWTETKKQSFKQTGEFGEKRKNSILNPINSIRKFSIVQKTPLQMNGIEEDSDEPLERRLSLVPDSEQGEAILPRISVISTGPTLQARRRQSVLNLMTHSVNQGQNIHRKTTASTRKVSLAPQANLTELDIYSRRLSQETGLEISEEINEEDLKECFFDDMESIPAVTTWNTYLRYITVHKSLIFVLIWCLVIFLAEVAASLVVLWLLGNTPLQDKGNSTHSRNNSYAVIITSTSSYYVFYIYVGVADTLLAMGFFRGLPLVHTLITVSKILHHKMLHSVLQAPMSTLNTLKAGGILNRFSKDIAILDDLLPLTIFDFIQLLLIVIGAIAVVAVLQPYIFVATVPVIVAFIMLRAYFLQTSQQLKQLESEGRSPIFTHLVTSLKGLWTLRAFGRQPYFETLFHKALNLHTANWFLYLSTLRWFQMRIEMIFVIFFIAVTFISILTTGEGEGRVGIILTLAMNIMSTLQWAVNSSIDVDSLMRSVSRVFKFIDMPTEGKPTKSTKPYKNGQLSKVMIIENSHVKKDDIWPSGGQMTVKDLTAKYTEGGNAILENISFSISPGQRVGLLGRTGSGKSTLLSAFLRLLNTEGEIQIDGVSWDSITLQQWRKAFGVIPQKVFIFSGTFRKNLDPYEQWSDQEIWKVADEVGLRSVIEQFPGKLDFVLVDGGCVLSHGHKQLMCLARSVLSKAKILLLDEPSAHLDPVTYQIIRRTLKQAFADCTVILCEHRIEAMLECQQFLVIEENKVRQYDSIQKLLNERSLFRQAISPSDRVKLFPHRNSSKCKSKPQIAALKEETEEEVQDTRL
CFTR (Homo sapiens, UniProt P13569), sequence (P13569 whole entry, species assumed): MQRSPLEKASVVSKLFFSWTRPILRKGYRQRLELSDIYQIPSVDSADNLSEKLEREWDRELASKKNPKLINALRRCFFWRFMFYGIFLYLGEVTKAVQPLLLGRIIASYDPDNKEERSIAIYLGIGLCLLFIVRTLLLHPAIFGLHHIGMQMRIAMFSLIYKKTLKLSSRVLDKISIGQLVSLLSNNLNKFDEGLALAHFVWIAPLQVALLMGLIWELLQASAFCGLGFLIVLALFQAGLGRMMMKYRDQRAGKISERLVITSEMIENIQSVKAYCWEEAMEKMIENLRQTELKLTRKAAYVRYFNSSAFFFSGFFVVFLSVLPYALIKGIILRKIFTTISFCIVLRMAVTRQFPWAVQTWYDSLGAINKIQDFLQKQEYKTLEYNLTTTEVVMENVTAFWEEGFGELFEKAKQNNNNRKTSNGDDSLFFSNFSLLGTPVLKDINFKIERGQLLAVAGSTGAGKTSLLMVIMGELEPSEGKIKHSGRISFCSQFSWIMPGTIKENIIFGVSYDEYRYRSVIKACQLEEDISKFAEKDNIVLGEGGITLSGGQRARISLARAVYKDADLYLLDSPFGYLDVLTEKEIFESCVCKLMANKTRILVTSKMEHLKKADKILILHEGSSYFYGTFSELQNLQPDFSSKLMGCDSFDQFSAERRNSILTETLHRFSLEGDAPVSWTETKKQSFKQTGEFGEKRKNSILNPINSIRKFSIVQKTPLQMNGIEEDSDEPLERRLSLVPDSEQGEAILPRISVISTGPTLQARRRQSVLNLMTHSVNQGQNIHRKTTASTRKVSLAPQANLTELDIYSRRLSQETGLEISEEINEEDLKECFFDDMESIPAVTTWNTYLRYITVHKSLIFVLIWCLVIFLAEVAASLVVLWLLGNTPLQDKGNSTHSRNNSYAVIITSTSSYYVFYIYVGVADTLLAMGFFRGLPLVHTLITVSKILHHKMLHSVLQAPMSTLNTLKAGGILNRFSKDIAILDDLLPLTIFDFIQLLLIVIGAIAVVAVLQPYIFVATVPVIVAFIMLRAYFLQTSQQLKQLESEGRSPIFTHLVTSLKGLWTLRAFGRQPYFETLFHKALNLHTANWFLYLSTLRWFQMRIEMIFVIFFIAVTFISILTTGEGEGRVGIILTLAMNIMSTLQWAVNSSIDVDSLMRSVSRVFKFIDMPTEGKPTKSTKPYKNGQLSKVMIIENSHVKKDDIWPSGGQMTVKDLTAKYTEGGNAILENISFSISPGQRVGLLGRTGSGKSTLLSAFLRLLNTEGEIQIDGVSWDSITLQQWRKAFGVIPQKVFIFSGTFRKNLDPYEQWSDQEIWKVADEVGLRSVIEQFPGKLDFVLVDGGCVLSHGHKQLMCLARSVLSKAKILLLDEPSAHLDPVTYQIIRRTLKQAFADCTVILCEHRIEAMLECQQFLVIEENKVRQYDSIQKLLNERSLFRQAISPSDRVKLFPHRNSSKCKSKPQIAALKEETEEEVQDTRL

HBE2 Activity at 3 μM (CFTR [1])	CFTR modulatory activity (potentiator activity) (CFTR [2])	Compound
+++ (+++ is >60%)		Cc1cccc(C)c1-c1cc2nc(n1)NS(=O)(=O)c1cccc(c1)C(=O)N(C1CCCN(C)C1=O)[C@H](CC(C)(C)C)CO2 (stereo partly drawn) [Compound 507, (11R)-6-(2,6-Dimethylphenyl)-11-(2,2-dimethylpropyl)-12-(1-methyl-2-oxo-3-piperidyl)-2,2-dioxo-9-oxa-2λ^6-thia-3,5,12,19-tetrazatricyclo[12.3.1.14,8]nonadeca-1(18),4(19),5,7,14,16-hexaen-13-one]
	confirmed	C[C@@H]1CCCCC[C@](O)(C(F)(F)F)C2=NN=C(O2)c2nc(c(C(F)(F)F)cc2N)O1 [(6R,12R)-17-amino-12-methyl-6,15-bis(trifluoromethyl)-13,19-dioxa-3,4,18-triazatricyclo[12.3.1.12,5] nonadeca-1(18),2,4,14,16-pentaen-6-ol]
+++ (+++ is >60%)		Cc1cccc(C)c1-c1cc2nc(n1)NS(=O)(=O)c1cccc(c1)C(=O)N(C1CCN(C)C1=O)[C@H](CC(C)(C)C)CO2 (stereo partly drawn) [Compound 508, (11R)-6-(2,6-Dimethylphenyl)-11-(2,2-dimethylpropyl)-12-(1-methyl-2-oxo-pyrrolidin-3-yl)-2,2-dioxo-9-oxa-2λ^6-thia-3,5,12,19-tetrazatricyclo[12.3.1.14,8]nonadeca-1(18),4(19),5,7,14,16-hexaen-13-one]
